Experimental data as given in paper PMC3253113, “Presenilin Is the Molecular Target of Acidic γ-Secretase Modulators in Living Cells” (PLoS ONE, 2012).
Entries after “also recorded” stand apart in the source; their conditions may differ. Where two headings read alike, the source gives them in different places.

Tests used:
Aβ42 levels = assay: Aβ42-lowering activity in PS70 cells, sandwich ELISA of conditioned media; details: CHO, 24 h, read-out: IC50 (Aβ42), Aβ42-lowering activity
N2a-ANPP cells = assay: Cell viability, alamarBlue reagent; assay type: cell-based
Description: Cell viability was assessed using the alamarBlue® reagent (Invitrogen). N2a-ANPP cells were seeded at low density in 96-well plates (4000 cells/well) and cultured for 24 h. The cells were then treated in duplicates with increasing concentrations of the respective compounds or DMSO as vehicle for an additional 24 h. 20 µl alamarBlue® was added to cells cultured in 200 µl medium and incubated overnight. Absorbance was measured with a Paradigm™ microplate reader at 570 nm, using 600 nm as the reference wavelength, and percent viability of vehicle control was calculated.

PSEN1-NTF [1] = biological target: T1, PSEN1-NTF (Homo sapiens, UniProt P49768); details: N2a-ANPP membranes, cell-free, 0.5 µM AR243 co-incubated with 100 µM competitor
PSEN1-NTF [2] = biological target: T1, PSEN1-NTF; assay: Competition of photo-probe AR243 binding, HEK293T membrane preparations; details: HEK293T membranes, excess of competitor (100 µM)
PSEN1-CTF [3] = biological target: T2, PSEN1-CTF (Homo sapiens, UniProt P49768); assay: Photo-affinity labeling in vitro, N2a-ANPP membrane preparations; assay type: binding; details: N2a-ANPP membranes, 0.25% CHAPSO, 0.5 µM photo-probe, UV
APH-1 = APH-1 (Homo sapiens, UniProt Q96BI3); assay: as above; assay type: binding; details: N2a-ANPP membranes, 0.25% CHAPSO, 0.5 µM photo-probe, UV
PEN-2 = PEN-2 (Homo sapiens, UniProt Q9NZ42); assay: as above; assay type: binding; details: N2a-ANPP membranes, 0.25% CHAPSO, 0.5 µM photo-probe, UV
Nicastrin = Nicastrin (Homo sapiens, UniProt Q92542); assay: as above; assay type: binding; details: N2a-ANPP membranes, 0.25% CHAPSO, 0.5 µM photo-probe, UV
endogenous PSEN1-NTF = biological target: T3, endogenous PSEN1-NTF (Homo sapiens, UniProt P49768); assay: Photo-affinity labeling in vitro, HEK293T membrane preparations; assay type: binding
T3 construct: host or cells: HEK293T membrane preparations

PSEN1-CTF [4] = biological target: T2, PSEN1-CTF; assay: Photo-affinity labeling in living N2a-ANPP cells; assay type: cell-based; details: live N2a-ANPP cells, 0.2 µM photo-probe, UV 365 and 302 nm
Description: (§1) Subsequently, cells were UV-irradiated on ice for 30 min at 365 nm and for 30 min at 302 nm. As negative controls, UV irradiation was omitted or cells were incubated with DMSO vehicle or compound AR80, which was structurally identical to AR243 but lacked the biotin moiety. Cells were washed and harvested in PBS and incubated with hypotonic buffer (10 mM Tris pH 7.4, 1x protease inhibitor mix) for 10 min on ice. To prepare cellular membranes, cells were passed 10 times through a 30G needle and centrifuged at 800×g, 10 min, 4°C. The post-nuclear supernatant was centrifuged at 18.000×g, 45 min, 4°C. […] The total protein concentration of the membrane preparations was determined by BCA assay, concentrations and volumes of each sample were adjusted, and 5x RIPA buffer was added to a final concentration of 1x RIPA buffer (150 mM NaCl, 1.0% NP-40, 0.5% sodium deoxycholate, 0.1% SDS, […], pH 8.0). […] Protein concentrations were again determined and adjusted to equal levels prior to the addition of streptavidin magnetic beads (Invitrogen). […] The eluted material was separated on 12% Bis-Tris gels and analyzed by Western blotting. Chemiluminescence was recorded with a LAS 3000 ECL camera system (Fuji Photo Film GmbH, Duesseldorf, Germany) or on CL-XPosure film (Fisher Scientific GmbH, Schwerte, Germany).

PSEN1-NTF [5] = biological target: T1, PSEN1-NTF; assay: Photo-affinity labeling in living N2a-ANPP cells; assay type: cell-based; details: live N2a-ANPP cells, 0.2 µM photo-probe, UV 365 and 302 nm
Description: as §1

PSEN1-CTF [6] = biological target: T2, PSEN1-CTF; assay: Photo-affinity labeling in vitro, HEK293T membrane preparations; assay type: binding; parameters: host or cells: HEK293T membrane preparations
Description: as §1, with “Germany). […]” for “Germany).”

Aβ38 levels = Aβ38 levels in PS70 cells, sandwich ELISA of conditioned media; details: CHO cells with wild type APP and PSEN1, increasing concentrations

SMILES: CC(C)C#CC(c1ccc(C2(C(F)(F)F)N=N2)cc1)N1CCC(CC(=O)O)CC1c1ccc(C(F)(F)F)cc1 (centres unmarked) [AR80]
- IC50 (Aβ42 levels): 190 nM

SMILES: CC(C)C#CC(c1ccc(Cl)cc1)N1CCC(CC(=O)O)CC1c1ccc(C(F)(F)F)cc1 (centres unmarked) [BB25]
- Concentrations with dose-dependent cytotoxicity (N2a-ANPP cells): > 10 µM
- Competition of AR243 binding to PSEN1-NTF (PSEN1-NTF [1]): efficiently reduced the labeling signal
- Displacement of AR243 from PSEN1-NTF (PSEN1-NTF [2]): caused displacement of the photo-probe
- IC50 (Aβ42 levels): 87 nM

SMILES: CC(C)CC(C(=O)O)c1cc(-c2ccc(C(F)(F)F)cc2)cc(-c2ccc(C(F)(F)F)cc2)c1 (centres unmarked) [JNJ-40418677]
- IC50 (Aβ42 levels): 290 nM

SMILES: COc1cc(-c2cc(C)c(NC(C)c3ccc(F)cc3)nn2)ccc1-n1cnc(C)c1 (centres unmarked) [Compound 1]
- Competition of AR243 binding to PSEN1-NTF (PSEN1-NTF [1]): reduced binding of the photo-probe as effectively as the acidic compound JNJ-40418677
- IC50 (Aβ42 levels): 54 nM

SMILES: CCOc1cc(C)c(Nc2ccnc(N3CCN(c4ccc(OC)cc4)C(C)(C)C3)n2)cc1C(C)C [Compound 2]
- Competition of AR243 binding to PSEN1-NTF (PSEN1-NTF [1]): only partially competed
- Competition of AR243 binding to PSEN1-NTF (PSEN1-NTF [1]; listed as compound 2): more modest reductions
- IC50 (Aβ42 levels): 77 nM

SMILES: O=C(O)CC1CCN(C(C#CCCCCOC(=O)CCCC[C@@H]2SC[C@@H]3NC(=O)N[C@@H]32)c2ccc(C3(C(F)(F)F)N=N3)cc2)C(c2ccc(C(F)(F)F)cc2)C1 (stereo partly drawn) [AR243, 2-(1-(7-((5-((3aS,4S,6aR)-2-oxohexahydro-1H-thieno[3,4-d]imidazol-4-yl)pentanoyl)oxy)-1-(4-(3(trifluoromethyl)-3H-diazirin-3-yl)phenyl)hept-2-yn-1-yl)-2-(4(trifluoromethyl)phenyl)piperidin-4-yl)acetic acid]
- Photo-affinity labeling of PSEN1-CTF (Western blotting) (PSEN1-CTF [3]): did not demonstrate binding
- Photo-affinity labeling of APH-1 (Western blotting) (APH-1): did not demonstrate binding
- Photo-affinity labeling of PEN-2 (Western blotting) (PEN-2): did not demonstrate binding
- Photo-affinity labeling of Nicastrin (Western blotting) (Nicastrin): did not demonstrate binding
- Photo-affinity labeling of endogenous PSEN1-NTF (Western blotting) (endogenous PSEN1-NTF): labeling of endogenous PSEN1-NFT
- Photo-affinity labeling of PSEN1-CTF in living cells (Western blotting) (PSEN1-CTF [4]): did not demonstrate binding
- Photo-affinity labeling of PSEN1-NTF in living cells (Western blotting) (PSEN1-NTF [5]): efficient labeling of PSEN1-NTF; also recorded: demonstrated binding of the photo-probe to PSEN1-NTF
- Photo-affinity labeling of PSEN1-CTF (Western blotting) (PSEN1-CTF [6]): not PSEN1-CTF
- Effect on Aβ38 levels (Aβ38 levels): concomitant increase in Aβ38 levels
- IC50 (Aβ42 levels): 290 nM

SMILES: COc1cc(/C=C2\CCCN([C@@H](C)c3ccc(F)cc3)C2=O)ccc1-n1cnc(C)c1 [E-2012]
- Competition of AR243 binding to PSEN1-NTF (PSEN1-NTF [1]): more modest reductions; also recorded: only partially competed
- IC50 (Aβ42 levels): 53 nM
